Experimental data as given in patent US6545038B1, “Heterocyclic metalloprotease inhibitors” (The Procter & Gamble Company, priority 1996, dated 2003).

Experiment: Method of use Example B: daily capsule in a subject suffering from osteoarthritis
Assay type: in vivo
Settings: human male, capsule containing 70 mg daily for 5 years
Experimental: A human subject weighing 90 kg (198 lbs), suffering from osteoarthritis, is treated by a method of this invention. Specifically, for 5 years, a capsule containing 70 mg of Example 3 is administered daily to said subject.

COc1ccc(S(=O)(=O)N2CCCSC(C)(C)[C@@H]2C(=O)N(C)O)cc1 [Example 3, 3(S)-N-Hydroxy-N-methyl-2,2-dimethyl-4N-[(4-methoxyphenyl)sulfonyl]-thiazepine-3-carboxamide]
erosion/fibrillation of the articular cartilage, examined via orthoscopy: no further advancement of erosion/fibrillation of the articular cartilage
